Measurements as given in patent US20060286105A1, “Tgf-beta antagonists combined with renin-angiotensin-aldosteron-system antagonists for treating renal insufficiency” (priority 2003, published 2006).

How the values were obtained:
[1] = system: diabetic rats; assay: Renal histology, early phase treatment (Example 8); format: in vivo, rat; details: weeks 27 to 52, 52 weeks, mean ± SE
Description: Male Sprague-Dawley rats with initial body weight of 250-275 g were studied. All animals were allowed free access to standard diet and tap water. Diabetes was induced by a single intravenous injection of streptozotocin (60 mg/kg body weight). […] Blood glucose levels were monitored at least once a week in all diabetic rats and occasionally in control animals for comparison. […] Renal morphology was assessed as glomerulosclerosis, interstitial inflammation and tubular damage. Specifically, the removed kidneys were fixed overnight in Dubosq-Brazil, dehydrated in alcohol, and embedded in paraffin. Kidney samples were sectioned at 3-μm intervals, and the sections were stained with Masson's trichrome, hematoxylin and eosin, or periodic-acid Schiff reagent (PAS stain). […] All renal biopsies were analyzed by the same pathologist who was unaware of the nature of the experimental groups. The statistical analysis was performed using the nonparametric Kruskal-Wallis test for multiple comparisons.

[2] = system: diabetic rats; assay: Serum creatinine, early phase treatment (Example 8); format: in vivo, rat; details: weeks 27 to 52, 52 weeks, mean ± SE
Description: Male Sprague-Dawley rats with initial body weight of 250-275 g were studied. All animals were allowed free access to standard diet and tap water. Diabetes was induced by a single intravenous injection of streptozotocin (60 mg/kg body weight). […] Blood glucose levels were monitored at least once a week in all diabetic rats and occasionally in control animals for comparison. […] Serum creatinine was measured at the end of the study by autoanalyzer (CX5 Beckman). The statistical analysis was performed using the nonparametric Kruskal-Wallis test for multiple comparisons.

[3] = system: diabetic rats; assay: Systolic blood pressure by tail cuff, early phase treatment (Example 8); format: in vivo, rat; details: mean ± SE
Description: (§1) Male Sprague-Dawley rats with initial body weight of 250-275 g were studied. All animals were allowed free access to standard diet and tap water. Diabetes was induced by a single intravenous injection of streptozotocin (60 mg/kg body weight). […] Blood glucose levels were monitored at least once a week in all diabetic rats and occasionally in control animals for comparison. Diabetic rats were divided into 3 groups (n=6 each): group 1 received a control antibody, 13C4; groups 2 and 3 received 1D11 (0.5 mg/kg i.p. three times a week) or enalapril (15 mg/l in the drinking water), respectively from 27 to 52 weeks; group 4 was normal rats. Systolic blood pressure was measured every two months after diabetic induction by the tail cuff method. The statistical analysis was performed using the nonparametric Kruskal-Wallis test for multiple comparisons.

[4] = system: diabetic rats; assay: Proteinuria, late phase treatment of diabetic nephropathy (Example 9); format: in vivo, rat; details: therapy weeks 52 to 61 after STZ, 1D11 0.5 mg/kg i.p. 3x/week, enalapril 15 mg/l drinking water, FIG. 8
Description: (§2) Urinary excretion of proteins was measured in 24 hr urine samples collected in metabolic cages at baseline, 18, 27, 36, 45, and 52 weeks by the modified Coomassie blue G dye-binding assay for proteins.
Diabetic rats were kept as described in Example 8 and were divided into 4 groups (n=5-6 each) and given from 52 to 61 weeks after the diabetis induction the following: the irrelevant antibody 13C4; the anti-TGF-β antibody 1D11 (0.5 mg/kg i.p. three times a week); the ACE inhibitor enalapril (15 mg/l in the drinking water), or the combination of 1D11 and enalapril. Five normal rats were used as controls. Systolic blood pressure was measured every two months after diabetes induction. Urinary excretion of proteins was measured in 24 hour urine samples collected in metabolic cages at baseline, 18, 27, 36, 45, 52, and 61 weeks. All measurements and data analysis were performed as described in Example 8.

[5] = system: diabetic rats; assay: Proteinuria, early phase treatment of diabetic nephropathy (Example 8); format: in vivo, rat; details: therapy weeks 27 to 52 after STZ, 1D11 0.5 mg/kg i.p. 3x/week, enalapril 15 mg/l drinking water, FIG. 7
Description: Male Sprague-Dawley rats with initial body weight of 250-275 g were studied. All animals were allowed free access to standard diet and tap water. Diabetes was induced by a single intravenous injection of streptozotocin (60 mg/kg body weight). The presence of diabetes was confirmed 2 days later by the measurement of the tail blood glucose level with a reflectance meter. Diabetic rats received daily evening injections of insulin in doses individually adjusted to maintain a blood glucose level between 200 and 450 mg/dl. Blood glucose levels were monitored at least once a week in all diabetic rats and occasionally in control animals for comparison.
Diabetic rats were divided into 3 groups (n=6 each): group 1 received a control antibody, 13C4; groups 2 and 3 received 1D11 (0.5 mg/kg i.p. three times a week) or enalapril (15 mg/l in the drinking water), respectively from 27 to 52 weeks; group 4 was normal rats.
as §2
The statistical analysis was performed using the nonparametric Kruskal-Wallis test for multiple comparisons.

[6] = system: diabetic rats; assay: Urinary albumin excretion by ELISA, early phase treatment (Example 8); format: in vivo, rat; details: weeks 27 to 52, at 52 weeks, mean ± SE
Description: as §1, with “Systolic blood pressure was measured every two months after diabetic induction by the tail cuff method.” left out

[7] = system: diabetic rats; assay: Serum creatinine, late phase treatment (Example 9); format: in vivo, rat; details: weeks 52 to 61, 61 weeks, mean ± SE
Description: Serum creatinine was measured at the end of the study by autoanalyzer (CX5 Beckman). […] Five normal rats were used as controls. Systolic blood pressure was measured every two months after diabetes induction. […] All measurements and data analysis were performed as described in Example 8.

[8] = system: diabetic rats; assay: Renal histology, late phase treatment (Example 9); format: in vivo, rat; details: weeks 52 to 61, 61 weeks, mean ± SE
Description: Renal morphology was assessed as glomerulosclerosis, interstitial inflammation and tubular damage. Specifically, the removed kidneys were fixed overnight in Dubosq-Brazil, dehydrated in alcohol, and embedded in paraffin. Kidney samples were sectioned at 3-μm intervals, and the sections were stained with Masson's trichrome, hematoxylin and eosin, or periodic-acid Schiff reagent (PAS stain). […] All renal biopsies were analyzed by the same pathologist who was unaware of the nature of the experimental groups. […] Five normal rats were used as controls. Systolic blood pressure was measured every two months after diabetes induction. […] All measurements and data analysis were performed as described in Example 8.

[9] = system: diabetic rats; assay: Urinary albumin excretion, late phase treatment (Example 9); format: in vivo, rat; details: weeks 52 to 61, at 61 weeks, mean ± SE
Description: (§3) Five normal rats were used as controls. Systolic blood pressure was measured every two months after diabetes induction. […] All measurements and data analysis were performed as described in Example 8.

[10] = system: diabetic rats; assay: Systolic blood pressure, late phase treatment (Example 9); format: in vivo, rat; details: mean ± SE
Description: as §3, with “Systolic blood pressure was measured every two months after diabetic induction by the tail cuff method. […] Five” for “Five”

[11] = system: diabetic rats; assay: Systolic blood pressure by tail plethysmography in diabetic rats (Example 3); format: in vivo, rat; details: uninephrectomized STZ-diabetic rats; treated months 4-8; antibody 0.5 mg/kg i.p. 3x/week, lisinopril 12.5 mg/l drinking water; FIG. 2
Description: Male Sprague-Dawley rats with initial body weights of 250 to 300 g were used in this study. Animal care and treatment were conducted in accordance with the U.S. […] All animals were housed in a room in which the temperature was kept constant on a 12-hour dark/12-hour light cycle and allowed free access to standard diet containing 20% protein by weight and tap water. The animals were subjected to unilateral nephrectomy under anaesthesia one week prior to the induction of diabetes to accelerate the onset of renal disease. The animals were rendered diabetic by a single intravenous (i.v.) injection of streptozotocin (STZ, Zanosar, Upjohn, Kalamazoo, Mich.; 60 mg/kg body weight). Food and water consumption, weight gain and the blood glucose levels were monitored to determine the degree of diabetes. The blood was obtained from the tip of the tails and analyzed by a modified glucose dehydrogenase method. […] Four months, after the induction of diabetes, animals were divided into seven groups of eight (unless otherwise indicated), which were treated for the next four months as follows: Animals were treated as described in Example 1. Systolic blood pressure at the end of the treatment period was recorded by tail plethysmography in conscious rats as described in Pfeffer et al.

[12] = target: TGF-β; assay: Antigen affinity and isoform specificity of anti-TGF-β antibodies; format: binding
Description: The epitopes for 1[…] al. (1998) J. Immunol., 142:1536-1541) and CAT192 have been mapped to the C-terminal portion of mature TGF-β.

[13] = system: diabetic rats; assay: Glomerular sclerosis, renal histology in diabetic rats (Example 4); format: in vivo, rat; details: uninephrectomized STZ-diabetic rats; treated months 4-8; antibody 0.5 mg/kg i.p. 3x/week, lisinopril 12.5 mg/l drinking water; FIG. 3
Description: Animals were treated as described in Example 1. At the end of the study, rat kidneys were harvested and fixed with 5% buffered formalin solution, embedded in paraffin, sectioned and stained with periodic acid-Schiff (PAS) for light microscopy analyses.
Glomerular diameters were measured and the degree of matrix expansion and glomerular injury was assessed on a minimum of 100 glomeruli/section. The degree of glomerulosclerosis was scored as previously described (Raij et al. (1984) Kidney Int., 26:137-143). The percentage of glomerular sclerosis was determined by an unbiased, trained pathologist who recorded pathologic changes using a 0-4 scale (score of 0 indicates no damage; 1+ indicates changes affecting less than 25% of the samples; 2+ indicates changes affecting 25- 50% of the sample; 3+, changes affecting 50-75% of the sample; 4+ changes affecting 75-100% of the sample).

CCOC(=O)[C@H](CCc1ccccc1)N[C@@H](C)C(=O)N1CCC[C@H]1C(=O)O [enalapril, 1-[N-[(S)-1-carboxy-3-phenylpropyl]-L-alanyl]-L-proline-1′-ethyl ester]
Interstitial inflammation (score) ([1]; graded 0 to 4+): 0.33 ± 0.21 score
Tubular damage (score) ([1]; graded 0 to 4+): 0.50 ± 0.22 score
Glomeruli with sclerotic changes [1]: 1.53 ± 0.32° %
Serum creatinine [2]: 0.49 ± 0.07 mg/dL
Systolic blood pressure ([3]; early phase study, week 27, before treatment (baseline of group)): 148.33 ± 2.47 mmHg
Systolic blood pressure ([3]; early phase treatment from week 27, week 36): 127.50 ± 2.81**°° mmHg
Systolic blood pressure ([3]; early phase treatment from week 27, week 45): 118.33 ± 2.47°° mmHg
Systolic blood pressure ([3]; early phase treatment from week 27, week 52): 117.50 ± 2.14°° mmHg
proteinuria (in words) [4]: similarly efficacious in reducing proteinuria
proteinuria (in words) [5]: similarly efficacious in reducing proteinuria
Urinary albumin excretion [6]: 4.70 ± 0.83*°# mg/day
Serum creatinine [7]: 0.56 ± 0.07 mg/dL
Interstitial inflammation (score) ([8]; graded 0 to 4+): 0.60 ± 0.24 score
Tubular damage (score) ([8]; graded 0 to 4+): 0.60 ± 0.24 score
Glomeruli with sclerotic changes [8]: 4.60 ± 2.19%
Urinary albumin excretion [9]: 30.40 ± 15.08 mg/day
Systolic blood pressure ([10]; late phase study, week 36, before therapy (given weeks 52 to 61)): 158.33 ± 2.79 mmHg
Systolic blood pressure ([10]; late phase study, week 52, start of therapy (given weeks 52 to 61)): 165.00 ± 2.89 mmHg
Systolic blood pressure ([10]; late phase treatment, weeks 52 to 61, week 61): 135.00 ± 1.58**°° mmHg

CAT192: fully human monoclonal anti-TGF-β1 antibody generated by phage display, described in WO 00/66631
systolic blood pressure at end of treatment [11]: displayed an anti-hypertensive effect
Kd [12]: ~8.4 pM
TGF-β isoform binding specificity [12]: specifically binds TGF-β only

NCCCC[C@H](N[C@@H](CCc1ccccc1)C(=O)O)C(=O)N1CCC[C@H]1C(=O)O [lisinopril, 1-[N2-[(S)-1-carboxy-3-phenylpropyl]-L-lysyl]-L-proline]
percentage of glomeruli with sclerotic changes (in words) [13]: limited the percentage of glomeruli with sclerosis to a similar degree as 1D 11
systolic blood pressure at end of treatment [11]: limited blood pressure increase to a similar extent as 1D11
